These compounds were tested on HIF (assay: Assay for inhibitory activity against HIF activity (HIF1 luciferase reporter cell line)). Conditions: Homo sapiens; HEK293 HIF1 reporter cell line, 1% oxygen, 6 hours, luciferase activity 50% inhibited.
Type: cell-based, human
Source text: In order to assay the compounds of the present invention for inhibitory activity against HIF activity, the HIF1 reporter plasmid (Panomics) that is designed to control the expression of luciferase by HIF was employed. The HIF1 reporter plasmid and the pTK-Hyg plasmid (Clontech), which carries a hygromycin resistant gene, were co-transfected into the HEK293 cell line (the Korean Cell Line Bank, KCLB No. 21573), derived from the human kidney, with the aid of Effectene transfection reagent (Qiagen). Then, the cells were cultured for 3 weeks on a medium containing 200 μg/mL hygromycin to select transformants resistant to hygromycin. The cell colonies derived from single cells were transferred to 24-well plates to secure a reporter cell line. The cells were seeded at a density of 4×10^4 cells/well into 96-well plates containing DMEM and incubated for 24 hours before treatment with the compounds of the present invention at a concentration of 25 μM, 5 μM, 1 μM, 200 nM, 40 nM, 8 nM, 1.6 nM, 320 pM, 64 pM, 12.8 pM, 2.56 pM, 512 fM, 102 fM, 20.4 fM, or an amount between any two concentrations above as shown in FIGS. 1A to 1C. Under 1% oxygen condition, the cells were incubated for 6 hours and then, the medium was removed. The cells were lyzed by incubation for 5 min with 100 μL of the mixture of Bright-Glo™ luciferase assay buffer and Bright-Glo™ luciferase assay substrate (Promega). The whole cell lysate was transferred to 96-well, white plates (PerkinElmer) and measured for luminescence using Victor™ 3 (PerkinElmer). From the luminescence measurements, IC50 (a concentration of the compound at which luciferase activity was 50% inhibited) was calculated using the GraphPad Prism™ 4 program. The results are summarized in Table 2 and illustrated in FIGS. 1A to 1C.
`CO/C=C(/C(=O)OC)c1ccccc1COc1cc(C=O)ccc1OC` [Compound 6, (E)-methyl 2-(2-((5-formyl-2-methoxyphenoxy)methyl)phenyl)-3-methoxyacrylate] showed an IC50 of 14600 nM.
With `CO/C=C(/C(=O)OC)c1ccccc1COc1ccc(/C=N/OCCc2ccccc2)cc1C` [Compound 59, (E)-methyl 2-(2-((2-methyl-4-((E)-(phenylethoxyimino)methyl)phenoxy)-methyl)phenyl)-3-methoxyacrylate] the IC50 was 261 nM.
`CO/C=C(/C(=O)OC)c1ccccc1COc1cccc(/C=N/OCCN2CCCCC2)c1` [Compound 10, (E)-methyl 3-methoxy-2-(2-((3-((E)-(2-(piperidin-1-yl)ethoxyimino)methyl)phenoxy)methyl)phenyl)acrylate] showed an IC50 of 7070 nM.
`CO/C=C(/C(=O)OC)c1ccccc1COc1ccc(/C(C)=N/OCc2ccccc2)cc1` [Compound 17, (E)-methyl 2-(2-((4-((E)-1-(benzyloxyimino)ethyl)phenoxy)methyl)-phenyl)-3-methoxyacrylate] showed an IC50 of 370 nM.
With `CCCO/N=C(\C)c1ccc(OCc2ccccc2/C(=C\OC)C(=O)OC)c(OC)c1` [Compound 35, (E)-methyl 2-(2-((4-((E)-1-(propoxyimino)ethyl)-2-methoxyphenoxy)-methyl)phenyl)-3-methoxyacrylate] the IC50 was 1920 nM.
Compound `CO/C=C(/C(=O)OC)c1ccccc1COc1ccc(F)cc1` [Compound 19, (E)-methyl 2-(2-((4-fluorophenoxy)methyl)phenyl)-3-methoxyacrylate] has an IC50 of 920 nM.
With `CO/C=C(/C(=O)OC)c1ccccc1COc1cc(/C=N/Oc2ccccc2)ccc1OC` [Compound 46, (E)-methyl 2-(2-((2-methoxy-5-((E)-1-(phenoxyimino)methyl)phenoxy)-methyl)phenyl)-3-methoxyacrylate] the IC50 was 170 nM.
In the case of `CO/C=C(/C(=O)OC)c1ccccc1COc1ccc(/C=N/OCc2ccccc2)cc1C` [Compound 33, (E)-methyl 2-(2-((4-((E)-(benzyloxyimino)methyl)-2-methylphenoxy)-methyl)phenyl)-3-methoxyacrylate], the IC50 is reported as 210 nM.
With `CO/C=C(/C(=O)OC)c1ccccc1COc1cccc(OCC[N+]2([O-])CCOCC2)c1` [Compound 13, (E)-4-(2-(3-(2-(1,3-dimethoxy-3-oxoprop-1-en-2-yl)benzyloxy)phenoxy)-ethyl)morpholine 4-oxide] the IC50 was 10000 nM.
In the case of `CO/C=C(/C(=O)OC)c1ccccc1COc1cc(O)cc(F)c1` [Compound 15, (E)-methyl 2-(2-((3-fluoro-5-hydroxyphenoxy)methyl)phenyl)-3-methoxyacrylate], the IC50 is reported as 3720 nM.
`CO/C=C(/C(=O)OC)c1ccccc1COc1cc(/C=N/OCc2ccccc2)ccc1OC` [Compound 39, (E)-methyl 2-(2-((5-((E)-(benzyloxyimino)methyl)-2-methoxyphenoxy)-methyl)phenyl)-3-methoxyacrylate] showed an IC50 of 1410 nM.
In the case of `CO/C=C(/C(=O)OC)c1ccccc1COc1cccc(O)c1` [Compound 5, (E)-methyl 2-(2-((5-hydroxyphenoxy)methyl)phenyl)-3-methoxyacrylate], the IC50 is reported as 1990 nM.
Compound `CCCO/N=C(\C)c1cc(C)c(OCc2ccccc2/C(=C\OC)C(=O)OC)cc1C` [Compound 2, (E)-methyl 2-(2-((2,5-dimethyl-4-((E)-1-(propoxyimino)ethyl)phenoxy)-methyl)phenyl)-3-methoxyacrylate] has an IC50 of 1 nM.
`CCCO/N=C/c1cc(F)c(OCc2ccccc2/C(=C\OC)C(=O)OC)c(OC)c1` [Compound 64, (E)-methyl 2-(2-((2-fluoro-6-methoxy-4-((E)-(propoxyimino)methyl)-phenoxy)methyl)phenyl)-3-methoxyacrylate] was tested, and the IC50 was 2620 nM.
`CCCO/N=C(\C)c1ccc(OC)c(OCc2ccccc2/C(=C\OC)C(=O)OC)c1` [Compound 42, (E)-methyl 2-(2-((2-methoxy-5-((E)-1-(propoxyimino)ethyl)phenoxy)-methyl)phenyl)-3-methoxyacrylate] was tested, and the IC50 was 5070 nM.
Work on `CO/C=C(/C(=O)OC)c1ccccc1COc1cc(F)cc(OCCOc2ccccc2)c1` [Compound 22, (E)-methyl 2-(2-((3-fluoro-5-(2-phenoxyethoxy)phenoxy)methyl)phenyl)-3-methoxyacrylate] yielded an IC50 of 260 nM.
Work on `CO/C=C(/C(=O)OC)c1ccccc1COc1cc(/C=N/OCCc2ccccc2)ccc1OC` [Compound 45, (E)-methyl 2-(2-((2-methoxy-5-((E)-1-(phenylethoxyimino)methyl)-phenoxy)methyl)phenyl)-3-methoxyacrylate] yielded an IC50 of 110 nM.
With `CO/C=C(/C(=O)OC)c1ccccc1COc1cc(/C(C)=N/Nc2ccccc2)ccc1OC` [Compound 48, (E)-methyl 2-(2-((2-methoxy-5-((E)-1-(phenylhydrazono)ethyl)phenoxy)-methyl)phenyl)-3-methoxyacrylate] the IC50 was 8580 nM.
Work on `CO/C=C(/C(=O)OC)c1ccccc1COc1cccc(OCc2ccccc2)c1` [Compound 3, (E)-methyl 2-(2-((3-(benzyloxy)phenoxy)methyl)phenyl)-3-methoxyacrylate] yielded an IC50 of 50 nM.
`CO/C=C(/C(=O)OC)c1ccccc1COc1ccc(/C(C)=N/OCCc2ccccc2)cc1` [Compound 18, (E)-methyl 2-(2-((4-((E)-1-(phenethoxyimino)ethyl)phenoxy)methyl)-phenyl)-3-methoxyacrylate] showed an IC50 of 400 nM.
`CO/C=C(/C(=O)OC)c1ccccc1COc1cc(C)c(/C=N/OCc2ccccn2)cc1C` [Compound 73, (E)-methyl 2-(2-((4-((E)-(pyridin-2-ylmethoxyimino)methyl)-2,5-dimethylphenoxy)methyl)phenyl)-3-methoxyacrylate] gave an IC50 of 30 nM.
For `CO/C=C(/C(=O)OC)c1ccccc1COc1ccc(/C=N/OCc2ccc(C)cc2)cc1C` [Compound 60, (E)-methyl 2-(2-((2-methyl-4-((E)-(4-methylbenzyloxyimino)methyl)-phenoxy)methyl)phenyl)-3-methoxyacrylate], the IC50 was 110 nM.
`CCCO/N=C/c1ccc(OCc2ccccc2/C(=C\OC)C(=O)OC)c(C)c1` [Compound 32, (E)-methyl 2-(2-((2-methyl-4-((E)-(propoxyimino)methyl)phenoxy)-methyl)phenyl)-3-methoxyacrylate] was tested, and the IC50 was 20 nM.
Work on `CO/C=C(/C(=O)OC)c1ccccc1COc1ccc(/C(C)=N/OCCN2CCCCC2)cc1` [Compound 9, (E)-methyl 2-(2-((4-((E)-1-(2-(piperidin-1-yl)ethoxyimino)ethyl)phenoxy)-methyl)phenyl)-3-methoxyacrylate] yielded an IC50 of 6410 nM.
Compound `CO/C=C(/C(=O)OC)c1ccccc1COc1cc(C)cc(OCCOc2ccccc2)c1C` [Compound 56, (E)-methyl 2-(2-((2,5-dimethyl-3-(2-phenoxyethoxy)phenoxy)methyl)-phenyl)-3-methoxyacrylate] has an IC50 of 2140 nM.
Compound `CCO/N=C(\C)c1cc(C)c(OCc2ccccc2/C(=C\OC)C(=O)OC)cc1C` [Compound 78, (E)-methyl 2-(2-((2,5-dimethyl-4-((E)-1-(ethoxyimino)ethyl)phenoxy)-methyl)phenyl)-3-methoxyacrylate] has an IC50 of 20 nM.
Compound `CCCO/N=C/c1cccc(OCc2ccccc2/C(=C\OC)C(=O)OC)c1` [Compound 14, (E)-methyl 3-methoxy-2-(2-((3-((E)-(propoxyimino)methyl)phenoxy)-methyl)phenyl)acrylate] has an IC50 of 19900 nM.
With `CCCO/N=C/c1cc(C)c(OCc2ccccc2/C(=C\OC)C(=O)OC)cc1C` [Compound 49, (E)-methyl 2-(2-((2,5-dimethyl-4-((E)-(propoxyimino)methyl)phenoxy)-methyl)phenyl)-3-methoxyacrylate] the IC50 was 10 nM.

— patent US8772290B2, “Alpha-arylmethoxyacrylate derivative, preparation method thereof, and pharmaceutical composition containing same” (Oscotech Inc., priority 2010, dated 2014)
